From patent US20250346593A1, “IMIDAZO(1,2-1)PYRIDINE DERIVATIVES AS RIPK2 INHIBITORS” (Interline Therapeutics, Inc., priority 2022, published 2025)
Read-outs that look alike come from different tables or passages of the source.

Legend:
[1] = target: GST-RIPK2 fusion protein (human RIPK2 amino acids 1-310) (Homo sapiens (Human), UniProt O43353); assay: RIPK2 binding competition assay (TR-FRET, Tracer 199)
[2] = tested on: NF-κB pathway (SEAP) in THP1-Dual cells; assay: THP-1 Dual cell SEAP assay (L18-MDP stimulated); assay type: cell-based; settings: read-out: NFkB THP1 IC50
[3] = read-out: RIPK2 IC50, RIPK2 binding competition assay

Chain of GST-RIPK2 fusion protein (human RIPK2 amino acids 1-310) (O43353 1-310): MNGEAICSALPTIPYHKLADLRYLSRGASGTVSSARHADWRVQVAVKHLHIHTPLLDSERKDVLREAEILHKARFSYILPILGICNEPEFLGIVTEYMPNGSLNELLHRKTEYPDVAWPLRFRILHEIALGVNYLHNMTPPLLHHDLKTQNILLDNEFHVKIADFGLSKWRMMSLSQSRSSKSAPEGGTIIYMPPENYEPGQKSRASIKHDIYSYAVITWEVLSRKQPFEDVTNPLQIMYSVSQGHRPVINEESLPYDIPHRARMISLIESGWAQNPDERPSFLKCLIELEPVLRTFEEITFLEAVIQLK

SMILES	IC50 [1]	IC50 ([2]; Homo sapiens, THP1-Dual)	further results
COc1cc2ncc(-c3cc(F)nc(NCCC(C)O)c3)n2cc1S(=O)(=O)C(C)(C)C (racemic) [Example 190, rac-4-((4-(6-(tert-butylsulfonyl)-7-methoxyimidazo[1,2-a]pyridin-3-yl)-6-fluoropyridin-2-yl)amino)butan-2-ol]	< 1 nM	–	–
COc1cc2ncc(-c3cc(F)nc(N[C@@H]4CC[C@H](O)C4)c3)n2cc1S(=O)(=O)C(C)(C)C (racemic) [Example 192, rac-(1R,3S)-3-((4-(6-(tert-butylsulfonyl)-7-methoxyimidazo[1,2-a]pyridin-3-yl)-6-fluoropyridin-2-yl)amino)cyclopentan-1-ol]	< 1 nM	< 50 nM	–
COc1cc2ncc(-c3cc(F)nc(N[C@@H]4CC[C@@H](O)C4)c3)n2cc1S(=O)(=O)C(C)(C)C (racemic) [Example 197, rac-(1R,3R)-3-((4-(6-(tert-butylsulfonyl)-7-methoxyimidazo[1,2-a]pyridin-3-yl)-6-fluoropyridin-2-yl)amino)cyclopentan-1-ol]	1 to 2.5 nM	< 50 nM	–
COc1cc2ncc(-c3cc(F)nc(N[C@@H]4CCC[C@@H](O)C4)c3)n2cc1S(=O)(=O)C(C)(C)C (racemic) [Example 205, rac-(1R,3R)-3-((4-(6-(tert-butylsulfonyl)-7-methoxyimidazo[1,2-a]pyridin-3-yl)-6-fluoropyridin-2-yl)amino)cyclohexan-1-ol]	1 to 2.5 nM	50 to 250 nM	–
COc1cc2ncc(-c3cc(F)nc(NC4CCCC[C@H]4O)c3)n2cc1S(=O)(=O)C(C)(C)C (mixture of isomers) [Example 225, (1R,2R & 1S,2S)-2-((4-(6-(tert-butylsulfonyl)-7-methoxyimidazo[1,2-a]pyridin-3-yl)-6-fluoropyridin-2-yl)amino)cyclohexan-1-ol]	2.5 to 20 nM	250 to 1000 nM	–
CCOc1cc2ncc(-c3cc(F)nc(NCCC(O)CC)c3)n2cc1S(=O)(=O)C(C)C (racemic) [Example 246, Rac-1-({4-[7-ethoxy-6-(propane-2-sulfonyl)imidazo[1,2-a]pyridin-3-yl]-6-fluoropyridin-2-yl}amino)pentan-3-ol]	< 1 nM	< 50 nM	–
COc1cc2ncc(-c3cc(F)nc(NCCC(C)O)c3)n2cc1S(=O)(=O)C(C)(C)C (single isomer, unassigned) [Example 169, 4-((4-(6-(tert-butylsulfonyl)-7-methoxyimidazo[1,2-a]pyridin-3-yl)-6-fluoropyridin-2-yl)amino)butan-2-ol]	< 1 nM	< 50 nM	–
COc1cc2ncc(-c3cc(F)nc(NCCC(C)O)c3)n2cc1S(=O)(=O)C(C)(C)C (single isomer, unassigned) [Example 170, 4-((4-(6-(tert-butylsulfonyl)-7-methoxyimidazo[1,2-a]pyridin-3-yl)-6-fluoropyridin-2-yl)amino)butan-2-ol]	–	–	IC50 [1, 3]: < 1 nM; IC50 [2]: < 50 nM
COc1cc2ncc(-c3cc(F)nc(NC[C@@H]4CCNC(=O)C4)c3)n2cc1S(=O)(=O)C(C)(C)C (single isomer, unassigned) [Example 238, (4R or S)-4-[({6-fluoro-4-[7-methoxy-6-(2-methylpropane-2-sulfonyl)imidazo[1,2-a]pyridin-3-yl]pyridin-2-yl}amino)methyl]pi peridin-2-one]	1 to 2.5 nM	50 to 250 nM	–
COc1cc2ncc(-c3ccnc(F)c3)n2cc1S(=O)(=O)C(C)(C)C [Example 5, 6-(tert-butylsulfonyl)-3-(2-fluoropyridin-4-yl)-7-methoxyimidazo[1,2-a]pyridine]	2.5 to 20 nM	–	–
COc1cc2ncc(-c3ccnc(N)c3)n2cc1S(=O)(=O)C(C)(C)C [Example 11, 4-[7-methoxy-6-(2-methylpropane-2-sulfonyl)imidazo[1,2-a]pyridin-3-yl]pyridin-2-amine]	–	250 to 1000 nM	–
COc1cc2ncc(-c3cc(C)nc(F)c3)n2cc1S(=O)(=O)C(C)(C)C [Example 12, 2-fluoro-4-[7-methoxy-6-(2-methylpropane-2-sulfonyl)imidazo[1,2-a]pyridin-3-yl]-6-methylpyridine]	2.5 to 20 nM	–	–
COc1ccc(-c2cnc3cc(OC)c(S(=O)(=O)C4CC4)cn23)cc1N [Example 33, 5-(6-(cyclopropylsulfonyl)-7-methoxyimidazo[1,2-a]pyridin-3-yl)-2-methoxyaniline]	–	–	IC50 [1, 3]: > 20 nM
COc1ccc(-c2cnc3cc(OC)c(S(=O)(=O)C(C)(C)C)cn23)cc1F [Example 63, 6-(tert-butylsulfonyl)-3-(3-fluoro-4-methoxyphenyl)-7-methoxyimidazo[1,2-a]pyridine]	2.5 to 20 nM	–	–
COc1cc2ncc(-c3ccc(N)c(C#N)c3)n2cc1S(=O)(=O)C(C)(C)C [Example 70, 2-amino-5-(6-(tert-butylsulfonyl)-7-methoxyimidazo[1,2-a]pyridin-3-yl)benzonitrile]	2.5 to 20 nM	–	–
COc1cc2ncc(-c3ccc(O)cc3)n2cc1S(=O)(=O)C(C)(C)C [Example 149, 4-(6-(tert-butylsulfonyl)-7-methoxyimidazo[1,2-a]pyridin-3-yl)phenol]	–	250 to 1000 nM	–

SMILES	IC50 [1]	IC50 ([2]; Homo sapiens, THP1-Dual)	further results
COc1cc2ncc(-c3cc(Cl)ncc3C)n2cc1S(=O)(=O)C(C)(C)C [Example 159, 6-(tert-Butylsulfonyl)-3-(2-chloro-5-methylpyridin-4-yl)-7-methoxyimidazo[1,2-a]pyridine]	–	–	IC50 [1, 3]: > 20 nM
CC(C)(C)S(=O)(=O)c1ccc2ncc(-c3cc(F)nc(NCCC4(O)CC4)c3)n2c1 [Example 172, 1-(2-((4-(6-(tert-butylsulfonyl)imidazo [1,2-a]pyridin-3-yl)-6-fluoropyridin-2-yl)amino)ethyl)cyclo-propan-1-ol]	1 to 2.5 nM	–	–
CC(C)(C)S(=O)(=O)c1ccc2ncc(-c3cc(F)nc(NCCCO)c3)n2c1 [Example 173, 3-((4-(6-(tert-butylsulfonyl)imidazo [1,2-a]pyridin-3-yl)-6-fluoropyridin-2-yl)amino)propan-1-ol]	2.5 to 20 nM	–	–
COc1cc2ncc(-c3cc(F)nc(NC4CC4)c3)n2cc1S(=O)(=O)C(C)(C)C [Example 177, 4-(6-(tert-butylsulfonyl)-7-methoxyimidazo[1,2-a]pyridin-3-yl)-N-cyclopropyl-6-fluoropyridin-2-amine]	–	–	IC50 [1, 3]: < 1 nM
COc1cc2ncc(-c3cc(F)nc(NCCC4(O)CCC4)c3)n2cc1S(=O)(=O)C(C)(C)C [Example 187, 1-(2-((4-(6-(tert-butylsulfonyl)-7-methoxyimidazo[1,2-a]pyridin-3-yl)-6-fluoropyridin-2-yl)amino)ethyl)cyclo-butan-1-ol]	–	–	IC50 [1, 3]: < 1 nM
COc1cc2ncc(-c3cc(F)nc(NCCC(C)(C)O)c3)n2cc1S(=O)(=O)C(C)(C)C [Example 189, 4-((4-(6-(tert-butylsulfonyl)-7-methoxyimidazo[1,2-a]pyridin-3-yl)-6-fluoropyridin-2-yl)amino)-2-methylbutan-2-ol]	–	–	IC50 [1, 3]: < 1 nM
COc1cc2ncc(-c3cc(F)nc(NC4CC(O)C4)c3)n2cc1S(=O)(=O)C(C)(C)C (stereo not shown) [Example 191, (1s,3s)-3-((4-(6-(tert-butylsulfonyl)-7-methoxyimidazo[1,2-a]pyridin-3-yl)-6-fluoropyridin-2-yl)amino)cyclobutan-1-ol]	–	< 50 nM	–
COc1cc2ncc(-c3cc(F)nc(N[C@H]4C[C@@H](O)C4)c3)n2cc1S(=O)(=O)C(C)(C)C [Example 191, (1s,3s)-3-((4-(6-(tert-butylsulfonyl)-7-methoxyimidazo[1,2-a]pyridin-3-yl)-6-fluoropyridin-2-yl)amino)cyclobutan-1-ol]	< 1 nM	–	–
COc1cc2ncc(-c3cc(F)nc(NC4CCC(O)CC4)c3)n2cc1S(=O)(=O)C(C)(C)C (stereo not shown) [Example 204, (1r,4r)-4-((4-(6-(tert-butylsulfonyl)-7-methoxyimidazo[1,2-a]pyridin-3-yl)-6-fluoropyridin-2-yl)amino)cyclohexan-1-ol]	–	50 to 250 nM	–
COc1cc2ncc(-c3cc(F)nc(N[C@H]4CC[C@H](O)CC4)c3)n2cc1S(=O)(=O)C(C)(C)C [Example 204, (1r,4r)-4-((4-(6-(tert-butylsulfonyl)-7-methoxyimidazo[1,2-a]pyridin-3-yl)-6-fluoropyridin-2-yl)amino)cyclohexan-1-ol]	1 to 2.5 nM	–	–
COc1cc2ncc(-c3cc(F)nc(N4CC5(C4)CC(O)(C(F)(F)F)C5)c3)n2cc1S(=O)(=O)C(C)(C)C [Example 217, 2-{6-fluoro-4-[7-methoxy-6-(2-methylpropane-2-sulfonyl)imidazo[1,2-a]pyridin-3-yl]pyridin-2-yl}-6-(trifluoromethyl)-2-azaspiro[3.3]heptan-6-ol]	2.5 to 20 nM	–	–
COc1cc2ncc(-c3cc(F)nc(N4CC5(CC(O)C5)C4)c3)n2cc1S(=O)(=O)C(C)(C)C [Example 218, 2-{6-fluoro-4-[7-methoxy-6-(2-methylpropane-2-sulfonyl)imidazo[1,2-a]pyridin-3-yl]pyridin-2-yl}-2-azaspiro[3.3]heptan-6-o1]	2.5 to 20 nM	–	–
COc1cc2ncc(-c3cc(F)nc(N[C@H]4C[C@H](OC)C4)c3)n2cc1S(=O)(=O)C(C)(C)C [Example 219, 6-fluoro-4-[7-methoxy-6-(2-methylpropane-2-sulfonyl)imidazo[1,2-a]pyridin-3-yl]-N-[(trans)-3-methoxycyclobutyl] pyridin-2-amine]	1 to 2.5 nM	–	–
COc1cc2ncc(-c3cc(F)nc(N[C@H]4C[C@@H](OC)C4)c3)n2cc1S(=O)(=O)C(C)(C)C [Example 220, 6-fluoro-4-[7-methoxy-6-(2-methylpropane-2-sulfonyl)imidazo[1,2-a]pyridin-3-yl]-N-[cis-3-methoxycyclobutyl] pyridin-2-amine]	1 to 2.5 nM	–	–
CC(C)(C)S(=O)(=O)c1ccn2ncc(-c3ccc(NCCCO)nc3F)c2c1 [Example 297, 3-((5-(5-(tert-butylsulfonyl)pyrazolo[1,5-a]pyridin-3-yl)-6-fluoropyridin-2-yl)amino)propan-1-ol]	–	–	IC50 [1, 3]: > 20 nM
COc1cc2ncc(-c3cc(F)nc(NCCCNC(C)=O)c3)n2cc1S(=O)(=O)C(C)(C)C [Example 318, N-[3-({6-fluoro-4-[7-methoxy-6-(2-methylpropane-2-sulfonyl)imidazo [1,2-a]pyridin-3-yl]pyridin-2-yl}amino)propyl] acetamide]	1 to 2.5 nM	–	–
